# Data reported in patent publication EP0639573A1, “Benzocondensed five membered heterocycles, process of their preparation, their use as drug, as diagnostic means and pharmaceuticals containing it” (HOECHST AKTIENGESELLSCHAFT, priority 1993, dated 1995).
# Counter-ions that a name gives are not always drawn.
# Target: T1, Na⁺/H⁺-Exchanger (Oryctolagus cuniculus, UniProt P23791)
# T1 construct: den Na⁺-Influx in die Erythrocyten via Na⁺/H⁺-Austausch flammenphotometrisch bestimmen zu können; from tissue; host or cells: Erythrocytes in whole blood from ear arteries of cholesterol-fed White New Zealand rabbits (Ivanovas)
# Test: Inhibition of the Na+/H+ exchanger of rabbit erythrocytes (amiloride-sensitive Na+ influx, flame photometry)
# Format: cell-based, Kaninchen
# Settings: Kaninchenerythrocyten; hyperosmolar salt-sucrose medium, pH 7,4, 37°C; rabbits on 2% cholesterol diet; read-out: IC₅₀
# Excerpt: Inhibition des Na⁺/H⁺-Exchangers von Kaninchenerythrocyten
# Weiße Neuseeland-Kaninchen (Ivanovas) erhielten eine Standard-Diät mit 2% Cholesterin für sechs Wochen, um den Na⁺/H⁺-Austausch zu aktivieren und so den Na⁺-Influx in die Erythrocyten via Na⁺/H⁺-Austausch flammenphotometrisch bestimmen zu können. Das Blut wurde den Ohrarterien entnommen und durch 25 IE Kalium-Heparin ungerinnbar gemacht. Ein Teil jeder Probe wurde zur Doppelbestimmung des Hämatokrits durch Zentrifugieren benutzt. Aliquots von jeweils 100 µl dienten zur Messung des Na⁺-Ausgangsgehalts der Erythrocyten.
# Um den Amilorid-sensitiven Natrium-Influx zu bestimmen, wurden 100 µl jeder Blutprobe in jeweils 5 ml eines hyperosmolaren Salz-Sucrose-Mediums (mmol/l: 140 NaCl, 3 KCl, 150 Sucrose, 0,1 Ouabain, 20 Tris-hydroxymethylaminomethan) bei pH 7,4 und 37°C inkubiert. Die Erythrocyten wurden danach dreimal mit eiskalter MgCl₂-Ouabain-Lösung (mmol/l: 112 MgCl₂, 0,1 Ouabain) gewaschen und in 2,0 ml destilliertem Wasser hämolysiert. Der intrazelluläre Natriumgehalt wurde flammenphotometrisch bestimmt.
# Der Na⁺ -Nettoinflux wurde aus der Differenz zwischen Natrium-Ausgangswerten und dem Natriumgehalt der Erythrocyten nach Inkubation errechnet. Der Amilorid-hemmbare Natrium-Influx ergab sich aus der Differenz des Natriumgehalts der Erythrocyten nach Inkubation mit und ohne Amilorid 3 x 10⁻⁴ mol/l. Auf diese Weise wurde auch bei den erfindungsgemäßen Verbindungen verfahren.
# T1 sequence (P23791 whole entry): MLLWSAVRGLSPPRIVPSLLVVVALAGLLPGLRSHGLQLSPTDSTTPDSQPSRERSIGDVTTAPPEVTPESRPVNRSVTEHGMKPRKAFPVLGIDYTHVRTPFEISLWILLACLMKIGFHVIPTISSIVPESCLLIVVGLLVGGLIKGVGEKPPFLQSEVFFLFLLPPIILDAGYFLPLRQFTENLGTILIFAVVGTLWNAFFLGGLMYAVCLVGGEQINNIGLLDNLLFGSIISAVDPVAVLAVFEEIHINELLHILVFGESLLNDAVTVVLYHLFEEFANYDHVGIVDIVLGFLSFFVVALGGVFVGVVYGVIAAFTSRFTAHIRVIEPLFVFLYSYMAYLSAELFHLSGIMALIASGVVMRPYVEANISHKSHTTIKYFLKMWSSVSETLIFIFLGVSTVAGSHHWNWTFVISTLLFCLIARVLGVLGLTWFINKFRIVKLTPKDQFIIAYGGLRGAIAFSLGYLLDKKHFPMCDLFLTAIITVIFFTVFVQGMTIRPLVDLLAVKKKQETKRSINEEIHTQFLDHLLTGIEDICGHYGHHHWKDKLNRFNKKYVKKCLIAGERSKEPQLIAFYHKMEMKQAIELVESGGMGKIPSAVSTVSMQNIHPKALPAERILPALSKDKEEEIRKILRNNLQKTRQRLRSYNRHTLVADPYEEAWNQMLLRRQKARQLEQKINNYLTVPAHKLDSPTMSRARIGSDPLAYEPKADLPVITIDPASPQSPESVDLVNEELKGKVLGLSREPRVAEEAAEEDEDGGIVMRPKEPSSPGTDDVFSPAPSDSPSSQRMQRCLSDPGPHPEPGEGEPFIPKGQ
row,Structure (SMILES),IC50 [nM]
1,"CCn1c(C(=O)N=C(N)N)cc2cc(Cl)ccc21 [Beispiel 52, 5-Chlor-1-ethyl-2-indolylcarbonyl-guanidin-hydrochlorid]",40
2,"CCCn1c(C(=O)N=C(N)N)cc2cc(Cl)ccc21 [Beispiel 53, 5-Chlor-1-propyl-2-indolylcarbonyl-guanidin-hydrochlorid]",50

# Continued, values first:
row,IC50 [nM],Structure (SMILES)
1,200,"CN1c2ccccc2CC1C(=O)N=C(N)N (stereo not shown) [Beispiel 104, 1-Methylindolin-2-carbonsäure-guanidid-hydrochlorid]"
2,30,"Cn1c(C(=O)N=C(N)N)c(Cl)c2cc(F)ccc21 [Beispiel 86, 3-Chlor-5-fluor-1-methylindolyl-2-carbonsäureguanidid Hydrochlorid]"
3,200,"CCCCn1c(C(=O)N=C(N)N)cc2cc(Cl)ccc21 [Beispiel 54, 5-Chlor-1-butyl-2-indolylcarbonyl-guanidin-hydrochlorid]"
4,50,"Cn1c(C(=O)N=C(N)N)c(Cl)c2cc(Cl)ccc21 [Beispiel 69, 3,5-Dichlor-1-methyl-2-indolylcarbonyl-guanidin-hydrochlorid]"
5,300,"NC(N)=NC(=O)c1cc2cc(Cl)ccc2n1Cc1ccncc1 [Beispiel 61, 5-Chlor-1-(4-picolyl)-2-indolylcarbonyl-guanidin-dihydrochlorid]"
6,50,"CN1c2ccc(F)cc2CC1C(=O)N=C(N)N (stereo not shown) [Beispiel 106, 5-Fluor-1-methylindolin-2-carbonsäureguanidid Hydrochlorid]"

# Tested on: Rattenherzen
# Test: not given
# Settings: isolated rat hearts; Eur. Heart J. 9 (suppl. 1): 167 (1988); cited from earlier work
row,Structure (SMILES),künstlich ausgelöstes Kammerflimmern
1,CCN(c1nc(N)c(C(=O)N=C(N)N)nc1Cl)C(C)C [Ethylisopropylamilorid],Noch potenter als Amilorid
2,NC(N)=NC(=O)c1nc(Cl)c(N)nc1N [Amilorid],völlig unterdrückt
